Measured values published in PMC12144893, “Synthesis and Characterization of Photoswitchable Covalent Ligands for the β2‐Adrenoceptor” (Angewandte Chemie (International Ed. in English), 2025).
Like-named read-outs stand apart in the source and are kept apart here.

How the values were obtained:
[1] = target: T1, human β2AR (Homo sapiens, UniProt P07550); format: cell-based
T1 construct: host or cells: HEK-293T

[2] = UV/Vis spectra of E- and Z-isomers in Tris buffer; format: physicochemical; conditions: for λmax (E): E-isomer, Tris buffer 50 mM Tris, 1 mM EDTA, 1 mM MgCl2; for λmax (Z): Z-isomer, Tris buffer
Protocol: 1.4. Photophysical Characterization
1.4.1. UV/Vis Spectra and Cycle Performance
UV/Vis absorption spectra were measured to characterize the photophysical properties of the synthesized pho to switches. The pho to switches were diluted with TRIS buffer (50 m M Tris, 1 m M EDTA, 1 mM MgCl2, pH 7.4) to end up with a concentration of 10 µM + 0.5% DMSO. The spectra were measured in a quartz glass cuvette after different illuminations with LED modules. First, the solution was illuminated with 365 nm light for 10 s to switch to the Z -isomer. After measuring the UV/Vis spectrum of the Z-isomer (purple curve), the solution was illuminated with 528 nm light for 120 s and the spectrum for the E -isomer (black curve) was measured. This cycle was repeated ten times to show the stability and repeatability of switching the compound. The isosbestic points could be determined from an overlay of the UV/Vis spectra of both isomers.
(§1) Wavelength λ [nm] Cycle Number
Figure S10. UV/Vis spectr um and cycle performance of 1.
Figure S11. UV/Vis spectr um and cycle performance of 2.
(also on this page, place not known: photoswitches. photoswitches mM mM MgCl 2, 0.5 % E-isomer coul d spectrum spectrum 600 0,15Absorbance 0 Absorbance 340 nm 600 0,18Absorbance 0 Absorbance 335 nm)

[3] = Photostationary states by analytical HPLC at isosbestic points; format: physicochemical; conditions: single experiment; for PSS (E → Z): irradiation with 365 nm; for PSS (Z → E): irradiation with 528 nm
Protocol: as §1
Figure S18. UV/Vis spectr um and cycle performance of 7.
1.4.2. Photostationary States
Photostationary states (PSS) were measured on analytical HPLC. To determine the photostationary state of the photoswitches the samples (0.2 mM in Tris buffer + 2% DMSO) were irradiated first with 3 65 nm to get the Z -isomer (Peak 1). Afterwards, the sample was irradiated with 528 nm to get back to the E-isomer (Peak 2). The samples were measured at the isosbestic points.
Figure S19. Photostationary state of 1 after irradiation with 365 nm (switching to the Z - isomer).
Figure S20. Photostationary state of 1 after irradiation with 528 nm (switching to the E -isomer). […]

[4] = Thermal half-life of the metastable Z isomer; format: physicochemical; conditions: Tris buffer + 0.5% DMSO
Protocol: Figure S36. Photostationary state of 9 after irradiation with 528 nm (switching to the E -isomer).
1.4.3. Thermal Half-lives
For the determination of the thermal stability of the metastable Z isomer a 50 µM solution in Tris buffer
+ 0.5% DMSO was irradiated with 365 nm. For 4 weeks the absorption at 335 nm was measured every
ExpDec1 Fit of Sheet1 B 0,35 ExpDec1 Fit of Sheet1 B
Modell ExpDec1 Modell ExpDec1
Gle i c hung y = A 1 *e xp (-x/t1 ) + y0 Gle i c hung y = A 1 *e xp (-x/t1 ) + y0
Ze i c hne n B Ze i c hne n B
(also on this page, place not known: E-isomer). 0,45absorption 335 nm Gleichung A1*exp(-x/t1) Zeichnen (COD) 0,50absorption 335 nm Gleichung A1*exp(-x/t1) Zeichnen (COD)) […]

[5] = E-isomer, β2AR wild type, mean ± S.E.M.
[6] = HEK-293T, E-isomer, β2AR wild type, relative to maximum effect of norepinephrine, read-out: Emax
[7] = HEK-293T, Z-isomer, β2AR wild type, relative to maximum effect of norepinephrine, read-out: Emax
[8] = Z-isomer, β2AR wild type, mean ± S.E.M.
[9] = HEK-293T, reference agonists, β2AR wild-type, relative to norepinephrine, read-out: Emax

T1 sequence (P07550 whole entry): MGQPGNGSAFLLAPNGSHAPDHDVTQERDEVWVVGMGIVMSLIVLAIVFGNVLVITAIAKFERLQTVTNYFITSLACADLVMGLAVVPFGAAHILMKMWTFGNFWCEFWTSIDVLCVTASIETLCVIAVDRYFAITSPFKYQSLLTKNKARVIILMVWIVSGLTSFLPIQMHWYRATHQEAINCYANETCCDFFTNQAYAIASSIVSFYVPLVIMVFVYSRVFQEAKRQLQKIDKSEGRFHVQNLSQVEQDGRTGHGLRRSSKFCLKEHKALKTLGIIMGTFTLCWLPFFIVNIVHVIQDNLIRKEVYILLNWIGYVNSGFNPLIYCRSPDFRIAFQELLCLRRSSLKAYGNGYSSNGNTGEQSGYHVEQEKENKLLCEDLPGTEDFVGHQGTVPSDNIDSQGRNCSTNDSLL

SMILES | EC50 [1, 5] [nM] | Emax [1, 6] [%] | Emax [1, 7] [%] | EC50 [1, 8] [nM] | λmax (E) [2] [nm] | λmax (Z) [2] [nm] | PSS (E → Z) [3] [%] | PSS (Z → E) [3] [%] | t1/2 [4] [days] | Emax ([1]; E-isomer, β2AR wild type, relative to maximum effect of norepinephrine) [%] | Emax ([1]; Z-isomer, β2AR wild type, relative to maximum effect of norepinephrine) [%] | EC50 ([1]; Z-isomer, β2AR wild type) [nM] | Emax [1, 9] [%]
Cc1nn(CCSSCCN)c(C)c1N=Nc1ccc(CCNCC(O)c2ccc(O)c3c2OCC(=O)N3)cc1 (mixture of isomers) [Compound 3] | 7.2 ± 3 | 85 ± 2 | 78 ± 4 | 17 ± 6.3 | 337 | 434 | 95 | 89 | 15.2 | – | – | – | –
Cc1nn(CCCCSSCCN)c(C)c1/N=N/c1ccc(CCNCC(O)c2ccc(O)c3c2OCC(=O)N3)cc1 (racemic) [Compound E-5] | 79 | – | – | – | – | – | – | – | – | – | – | – | –
Cc1nn(CCCCCSSCCN)c(C)c1/N=N/c1ccc(CCNCC(O)c2ccc(O)c3c2OCC(=O)N3)cc1 (racemic) [Compound E-6] | – | – | – | – | – | – | – | – | – | 70 | – | – | –
Cc1nn(CCCCCSSCCN)c(C)c1/N=N\c1ccc(CCNCC(O)c2ccc(O)c3c2OCC(=O)N3)cc1 (racemic) [Compound Z-6] | – | – | – | – | – | – | – | – | – | – | 85 | – | –
Cc1nn(CCSSCCN(C)C)c(C)c1/N=N/c1ccc(CCNC[C@H](O)c2ccc(O)c(O)c2)cc1 [Compound 1, (R,E)-4-(2-((4-((1-(2-((2-(Dimethylamino)ethyl)disulfaneyl)ethyl)-3,5-dimethyl-1H-pyrazol-4-yl)diazenyl)phenethyl)amino)-1-hydroxyethyl)benzene-1,2-diol] | 630 ± 72 | 108 ± 3 | 78 ± 1 | 480 ± 110 | 335 | 435 | 89 | 90 | 3.9 | – | – | – | –
Cc1nn(CCCSSCCN(C)C)c(C)c1/N=N/c1ccc(CCNC[C@H](O)c2ccc(O)c(O)c2)cc1 [Compound 2] | 940 ± 34 | 96 ± 2 | 97 ± 1 | 700 ± 35 | 335 | 433 | 89 | 87 | 4.9 | – | – | – | –
Cc1nn(CCCSSCCN)c(C)c1/N=N/c1ccc(CCNCC(O)c2ccc(O)c3c2OCC(=O)N3)cc1 (centres unmarked) [Compound 4] | 39 ± 7 | 88 ± 3 | 87 ± 5 | 9.8 ± 0.9 | 339 | 436 | 96 | 92 | 15.7 | – | – | – | –
Cc1nn(CCCCSSCCN)c(C)c1/N=N/c1ccc(CCNCC(O)c2ccc(O)c3c2OCC(=O)N3)cc1 (centres unmarked) [Compound 5] | 79 ± 25 | 98 ± 1 | 93 ± 4 | 9.9 ± 1.7 | 338 | 436 | 94 | 92 | 16.7 | – | – | – | –
Cc1nn(CCCCCSSCCN)c(C)c1/N=N/c1ccc(CCNCC(O)c2ccc(O)c3c2OCC(=O)N3)cc1 (centres unmarked) [Compound 6] | 38 ± 5.8 | 70 ± 2 | 89 ± 1 | 21 ± 1.3 | 340 | 435 | 95 | 93 | 13.3 | – | – | – | –
Cc1nn(CCN2C(=O)C=CC2=O)c(C)c1/N=N/c1ccc(CCNC[C@H](O)c2ccc(O)c(O)c2)cc1 [Compound 7] | 1500 | 103 ± 4 | 101 ± 10 | 4300 | 335 | 433 | 92 | 85 | 4.5 | – | – | – | –
Cc1nn(CCN2C(=O)C=CC2=O)c(C)c1/N=N/c1ccc(CCNCC(O)c2ccc(O)c3c2OCC(=O)N3)cc1 (centres unmarked) [Compound 8] | 53 ± 2.6 | 84 ± 5 | 90 ± 2 | 75 ± 2.3 | 337 | 435 | 95 | 94 | 18.6 | – | – | – | –
Cc1nn(CCCN2C(=O)C=CC2=O)c(C)c1/N=N/c1ccc(CCNCC(O)c2ccc(O)c3c2OCC(=O)N3)cc1 (centres unmarked) [Compound 9] | 72 ± 12 | 88 ± 5 | 85 ± 5 | 57 ± 8.5 | 339 | 435 | 95 | 93 | 20.4 | – | – | – | –
Cc1nn(CCSSCCN)c(C)c1/N=N/c1ccc(CCNCC(O)c2ccc(O)c3c2OCC(=O)N3)cc1 (centres unmarked) [Compound E-3] | 7.2 | – | – | – | – | – | – | – | – | – | – | – | –
Cc1nn(CCSSCCN(C)C)c(C)c1/N=N\c1ccc(CCNC[C@H](O)c2ccc(O)c(O)c2)cc1 [Compound Z-1] | – | – | – | – | – | – | – | – | – | – | – | 480 | –
Cc1nn(CCN2C(=O)C=CC2=O)c(C)c1/N=N\c1ccc(CCNC[C@H](O)c2ccc(O)c(O)c2)cc1 [Compound Z-7] | – | – | – | – | – | – | – | – | – | – | – | 4300 | –
CNC[C@H](O)c1ccc(O)c(O)c1 [epinephrine, reference compound] | – | – | – | – | – | – | – | – | – | – | – | – | 103
NC[C@H](O)c1ccc(O)c(O)c1 [norepinephrine, reference compound] | – | – | – | – | – | – | – | – | – | – | – | – | 100
